# Data reported in ChEMBL document CHEMBL3885881, “DrugMatrix”.
# Species: Rattus norvegicus
# Assay: DrugMatrix - Regimen: Daily Repeat
# Assay type: toxicity, organism-based, Sprague-Dawley
# Design: regimen Daily Repeat, gender Male, age 6-8 weeks
# Conditions: in vivo, iv, vehicle 100 % SALINE; for ABSOLUTE BASOPHIL / ABSOLUTE EOSINOPHIL / ABSOLUTE LYMPHOCYTE / ABSOLUTE MONOCYTE / ABSOLUTE SEGMENTED NEUTROPHIL / BASOPHIL / EOSINOPHIL / ERYTHROCYTE COUNT / HEMATOCRIT / HEMOGLOBIN / LEUKOCYTE COUNT / LYMPHOCYTE / MEAN CORPUSCULAR HEMOGLOBIN / MEAN CORPUSCULAR HEMOGLOBIN CONCENTRATION / MEAN CORPUSCULAR VOLUME / MONOCYTE / NEUTROPHIL / NUCLEATED RED BLOOD CELLS / PLATELET COUNT: tissue Blood; for ALANINE AMINOTRANSFERASE / ALBUMIN / ALKALINE PHOSPHATASE / ASPARTATE AMINOTRANSFERASE / BLOOD UREA NITROGEN / CARBON DIOXIDE / CHLORIDE / CHOLESTEROL / CREATINE PHOSPHOKINASE / CREATININE / GLUCOSE / LACTATE DEHYDROGENASE / LIPASE / PHOSPHORUS / POTASSIUM / SODIUM / TOTAL BILIRUBIN / TOTAL PROTEIN / URIC ACID: tissue Plasma
# [1] = 0 mg/kg, 72 h, dose level Control, time 3 day
# [2] = 0 mg/kg, 120 h, dose level Control, time 5 day
# [3] = 3 mg/kg, 72 h, dose level Low, time 3 day
smiles,measurement,setting,value
O=c1[nH]c(=O)n([C@H]2C[C@H](O)[C@@H](CO)O2)cc1F [FLOXURIDINE],ABSOLUTE BASOPHIL,[1],0 CELLS/uL
same,ABSOLUTE EOSINOPHIL,[1],0 CELLS/uL
same,ABSOLUTE LYMPHOCYTE,[1],11636.83 CELLS/uL
same,ABSOLUTE MONOCYTE,[1],159 CELLS/uL
same,ABSOLUTE SEGMENTED NEUTROPHIL,[1],1170.83 CELLS/uL
same,BASOPHIL,[1],0%
same,EOSINOPHIL,[1],0%
same,ERYTHROCYTE COUNT,[1],5.46 x10E6/uL
same,HEMATOCRIT,[1],34.05%
same,HEMOGLOBIN,[1],13.58 G/DL
same,LEUKOCYTE COUNT,[1],12.97 x10E3/uL
same,LYMPHOCYTE,[1],89.67%
same,MEAN CORPUSCULAR HEMOGLOBIN,[1],24.87 pg
same,MEAN CORPUSCULAR HEMOGLOBIN CONCENTRATION,[1],39.9 G/DL
same,MEAN CORPUSCULAR VOLUME,[1],62.3 fL
same,MONOCYTE,[1],1.33%
same,NEUTROPHIL,[1],9%
same,NUCLEATED RED BLOOD CELLS,[1],0.17 /100WBC
same,PLATELET COUNT,[1],824 x10E3/uL
same,ALANINE AMINOTRANSFERASE,[1],64.83 u/L
same,ALBUMIN,[1],4.08 G/DL
same,ALKALINE PHOSPHATASE,[1],421 u/L
same,ASPARTATE AMINOTRANSFERASE,[1],116.83 u/L
same,BLOOD UREA NITROGEN,[1],16.83 mg/dL
same,CARBON DIOXIDE,[1],28 mmol/L
same,CHLORIDE,[1],101.33 MEQ/L
same,CHOLESTEROL,[1],74.17 mg/dL
same,CREATINE PHOSPHOKINASE,[1],748.5 u/L
same,CREATININE,[1],0.22 mg/dL
same,GLUCOSE,[1],152.83 mg/dL
same,LACTATE DEHYDROGENASE,[1],578.5 u/L
same,LIPASE,[1],9.83 u/L
same,PHOSPHORUS,[1],11.63 mg/dL
same,POTASSIUM,[1],5.93 MEQ/L
same,SODIUM,[1],142.1 MEQ/L
same,TOTAL BILIRUBIN,[1],0.17 mg/dL
same,TOTAL PROTEIN,[1],5.77 G/DL
same,URIC ACID,[1],1.43 mg/dL
same,ABSOLUTE BASOPHIL,[2],0 CELLS/uL
same,ABSOLUTE EOSINOPHIL,[2],159.17 CELLS/uL
same,ABSOLUTE LYMPHOCYTE,[2],12267.5 CELLS/uL
same,ABSOLUTE MONOCYTE,[2],30 CELLS/uL
same,ABSOLUTE SEGMENTED NEUTROPHIL,[2],1160 CELLS/uL
same,BASOPHIL,[2],0%
same,EOSINOPHIL,[2],1.17%
same,ERYTHROCYTE COUNT,[2],5.52 x10E6/uL
same,HEMATOCRIT,[2],34.3%
same,HEMOGLOBIN,[2],13.73 G/DL
same,LEUKOCYTE COUNT,[2],13.62 x10E3/uL
same,LYMPHOCYTE,[2],90.5%
same,MEAN CORPUSCULAR HEMOGLOBIN,[2],24.92 pg
same,MEAN CORPUSCULAR HEMOGLOBIN CONCENTRATION,[2],40.07 G/DL
same,MEAN CORPUSCULAR VOLUME,[2],62.17 fL
same,MONOCYTE,[2],0.17%
same,NEUTROPHIL,[2],8.17%
same,NUCLEATED RED BLOOD CELLS,[2],0.17 /100WBC
same,PLATELET COUNT,[2],1261.83 x10E3/uL
same,ALANINE AMINOTRANSFERASE,[2],58.67 u/L
same,ALBUMIN,[2],4.15 G/DL
same,ALKALINE PHOSPHATASE,[2],364.67 u/L
same,ASPARTATE AMINOTRANSFERASE,[2],105.33 u/L
same,BLOOD UREA NITROGEN,[2],17.67 mg/dL
same,CARBON DIOXIDE,[2],26.5 mmol/L
same,CHLORIDE,[2],101.67 MEQ/L
same,CHOLESTEROL,[2],63 mg/dL
same,CREATINE PHOSPHOKINASE,[2],480.67 u/L
same,CREATININE,[2],0.17 mg/dL
same,GLUCOSE,[2],144.67 mg/dL
same,LACTATE DEHYDROGENASE,[2],540.33 u/L
same,LIPASE,[2],10.33 u/L
same,PHOSPHORUS,[2],11.52 mg/dL
same,POTASSIUM,[2],6.12 MEQ/L
same,SODIUM,[2],142.45 MEQ/L
same,TOTAL BILIRUBIN,[2],0.18 mg/dL
same,TOTAL PROTEIN,[2],5.73 G/DL
same,URIC ACID,[2],1.48 mg/dL
same,ABSOLUTE BASOPHIL,[3],0 CELLS/uL
same,ABSOLUTE EOSINOPHIL,[3],0 CELLS/uL
same,ABSOLUTE LYMPHOCYTE,[3],9392.67 CELLS/uL
same,ABSOLUTE MONOCYTE,[3],101.67 CELLS/uL
same,ABSOLUTE SEGMENTED NEUTROPHIL,[3],505.67 CELLS/uL
same,BASOPHIL,[3],0%
same,EOSINOPHIL,[3],0%
same,ERYTHROCYTE COUNT,[3],5.12 x10E6/uL
same,HEMATOCRIT,[3],32.33%
same,HEMOGLOBIN,[3],13.1 G/DL
same,LEUKOCYTE COUNT,[3],10 x10E3/uL
same,LYMPHOCYTE,[3],94%
same,MEAN CORPUSCULAR HEMOGLOBIN,[3],25.7 pg
same,MEAN CORPUSCULAR HEMOGLOBIN CONCENTRATION,[3],40.53 G/DL
same,MEAN CORPUSCULAR VOLUME,[3],63.17 fL
same,MONOCYTE,[3],1%
same,NEUTROPHIL,[3],5%
same,NUCLEATED RED BLOOD CELLS,[3],0 /100WBC
same,PLATELET COUNT,[3],833.67 x10E3/uL
same,ALANINE AMINOTRANSFERASE,[3],54.67 u/L
same,ALBUMIN,[3],4.4 G/DL
same,ALKALINE PHOSPHATASE,[3],391.67 u/L
same,ASPARTATE AMINOTRANSFERASE,[3],100 u/L
same,BLOOD UREA NITROGEN,[3],17 mg/dL
same,CARBON DIOXIDE,[3],29.67 mmol/L
same,CHLORIDE,[3],101 MEQ/L
same,CHOLESTEROL,[3],79 mg/dL
same,CREATINE PHOSPHOKINASE,[3],755 u/L
same,CREATININE,[3],0.22 mg/dL
same,GLUCOSE,[3],171 mg/dL
same,LACTATE DEHYDROGENASE,[3],240.33 u/L
same,LIPASE,[3],9 u/L
same,PHOSPHORUS,[3],10.77 mg/dL
same,POTASSIUM,[3],6.26 MEQ/L
same,SODIUM,[3],142.13 MEQ/L
same,TOTAL BILIRUBIN,[3],0.2 mg/dL
same,TOTAL PROTEIN,[3],6.17 G/DL
same,URIC ACID,[3],2.23 mg/dL
